From the supplement of paper PMC10307832

Columns and labels:
Assay in all cases: relative viability (nuclei count vs DMSO), 5 days (fraction); higher = more cells survive
LCLC-103H = test system: LCLC-103H
Method in brief: (§1)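 Medians of duplicate plates are given as relative viability. That measure is the nuclei count in treated wells divided by the count in vehicle wells. Counts were taken on 4× images of lung cancer cell lines in 1536-well plates, 5 days after pin-tool dosing the day after seeding with one drug alone or a fixed anchor-drug dose plus five library-drug doses (not always all listed) in √10 steps.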

LXF-289 = test system: LXF-289
Method in brief: as §1

NCI-H1355 = test system: NCI-H1355
Method in brief: as §1

NCI-H1563 = test system: NCI-H1563
Method in brief: as §1

NCI-H1651 = test system: NCI-H1651
Method in brief: as §1

NCI-H1755 = test system: NCI-H1755
Method in brief: as §1

NCI-H1792 = test system: NCI-H1792
Method in brief: as §1

NCI-H1915 = test system: NCI-H1915
Method in brief: as §1

NCI-H2170 = test system: NCI-H2170
Method in brief: as §1

NCI-H2347 = test system: NCI-H2347
Method in brief: as §1

NCI-H3122 = test system: NCI-H3122
Method in brief: as §1

NCI-H322M = test system: NCI-H322M
Method in brief: as §1

NCI-H441 = test system: NCI-H441
Method in brief: as §1

NCI-H460 = test system: NCI-H460
Method in brief: as §1

NCI-H520 = test system: NCI-H520
Method in brief: as §1

NCI-H596 = test system: NCI-H596
Method in brief: as §1

NCI-H650 = test system: NCI-H650
Method in brief: as §1

NCI-H661 = test system: NCI-H661
Method in brief: as §1

NCI-H727 = test system: NCI-H727
Method in brief: as §1

PC-14 = test system: PC-14
Method in brief: as §1

RERF-LC-KJ = test system: RERF-LC-KJ
Method in brief: as §1

SK-MES-1 = test system: SK-MES-1
Method in brief: as §1

SW 900 = test system: SW 900
Method in brief: as §1

Structure (SMILES): NC(=O)Nc1cc(-c2cccc(F)c2)sc1C(=O)N[C@H]1CCCNC1 [AZD7762] + COc1cccc2cc(-c3nc([C@H]4CC[C@H](C(=O)O)CC4)n4ncnc(N)c34)[nH]c12 [OSI-027] (partner 0.5 µM)
- relative viability (LCLC-103H; first compound 0.01 µM): 0.451
- relative viability (LCLC-103H; first compound 0.03162 µM): 0.471
- relative viability (LCLC-103H; first compound 0.1 µM): 0.427
- relative viability (LCLC-103H; first compound 0.3162 µM): 0.392
- relative viability (LCLC-103H; first compound 1 µM): 0.341
- relative viability (LXF-289; first compound 0.01 µM): 0.61
- relative viability (LXF-289; first compound 0.03162 µM): 0.835
- relative viability (LXF-289; first compound 0.1 µM): 0.886
- relative viability (LXF-289; first compound 0.3162 µM): 0.864
- relative viability (LXF-289; first compound 1 µM): 0.971
- relative viability (NCI-H1355; first compound 0.01 µM): 0.389
- relative viability (NCI-H1355; first compound 0.03162 µM): 0.489
- relative viability (NCI-H1355; first compound 0.1 µM): 0.515
- relative viability (NCI-H1355; first compound 0.3162 µM): 0.443
- relative viability (NCI-H1355; first compound 1 µM): 0.418
- relative viability (NCI-H1563; first compound 0.01 µM): 0.792
- relative viability (NCI-H1563; first compound 0.03162 µM): 0.781
- relative viability (NCI-H1563; first compound 0.1 µM): 0.748
- relative viability (NCI-H1563; first compound 0.3162 µM): 0.804
- relative viability (NCI-H1563; first compound 1 µM): 0.771
- relative viability (NCI-H1651; first compound 0.01 µM): 0.76
- relative viability (NCI-H1651; first compound 0.03162 µM): 0.637
- relative viability (NCI-H1651; first compound 0.1 µM): 0.653
- relative viability (NCI-H1651; first compound 0.3162 µM): 0.637
- relative viability (NCI-H1651; first compound 1 µM): 0.193
- relative viability (NCI-H1755; first compound 0.01 µM): 0.826
- relative viability (NCI-H1755; first compound 0.03162 µM): 0.845
- relative viability (NCI-H1755; first compound 0.1 µM): 0.722
- relative viability (NCI-H1755; first compound 0.3162 µM): 0.712
- relative viability (NCI-H1755; first compound 1 µM): 0.44
- relative viability (NCI-H1792; first compound 0.01 µM): 0.832
- relative viability (NCI-H1792; first compound 0.03162 µM): 0.848
- relative viability (NCI-H1792; first compound 0.1 µM): 0.811
- relative viability (NCI-H1792; first compound 0.3162 µM): 0.867
- relative viability (NCI-H1792; first compound 1 µM): 0.965
- relative viability (NCI-H1915; first compound 0.01 µM): 0.629
- relative viability (NCI-H1915; first compound 0.03162 µM): 0.635
- relative viability (NCI-H1915; first compound 0.1 µM): 0.64
- relative viability (NCI-H1915; first compound 0.3162 µM): 0.638
- relative viability (NCI-H1915; first compound 1 µM): 0.571
- relative viability (NCI-H2170; first compound 0.01 µM): 0.637
- relative viability (NCI-H2170; first compound 0.03162 µM): 0.734
- relative viability (NCI-H2170; first compound 0.1 µM): 0.807
- relative viability (NCI-H2170; first compound 0.3162 µM): 0.8
- relative viability (NCI-H2170; first compound 1 µM): 0.707
- relative viability (NCI-H2347; first compound 0.01 µM): 0.433
- relative viability (NCI-H2347; first compound 0.03162 µM): 0.529
- relative viability (NCI-H2347; first compound 0.1 µM): 0.412
- relative viability (NCI-H2347; first compound 0.3162 µM): 0.395
- relative viability (NCI-H2347; first compound 1 µM): 0.356
- relative viability (NCI-H3122; first compound 0.01 µM): 1.03
- relative viability (NCI-H3122; first compound 0.03162 µM): 1.1
- relative viability (NCI-H3122; first compound 0.1 µM): 0.995
- relative viability (NCI-H3122; first compound 0.3162 µM): 0.473
- relative viability (NCI-H3122; first compound 1 µM): 0.259
- relative viability (NCI-H322M; first compound 0.01 µM): 0.555
- relative viability (NCI-H322M; first compound 0.03162 µM): 0.581
- relative viability (NCI-H322M; first compound 0.1 µM): 0.562
- relative viability (NCI-H322M; first compound 0.3162 µM): 0.254
- relative viability (NCI-H322M; first compound 1 µM): 0.255
- relative viability (NCI-H441; first compound 0.01 µM): 0.765
- relative viability (NCI-H441; first compound 0.03162 µM): 0.819
- relative viability (NCI-H441; first compound 0.1 µM): 0.944
- relative viability (NCI-H441; first compound 0.3162 µM): 0.799
- relative viability (NCI-H441; first compound 1 µM): 0.59
- relative viability (NCI-H460; first compound 0.01 µM): 0.861
- relative viability (NCI-H460; first compound 0.03162 µM): 0.751
- relative viability (NCI-H460; first compound 0.1 µM): 0.649
- relative viability (NCI-H460; first compound 0.3162 µM): 0.463
- relative viability (NCI-H460; first compound 1 µM): 0.0347
- relative viability (NCI-H520; first compound 0.01 µM): 0.294
- relative viability (NCI-H520; first compound 0.03162 µM): 0.246
- relative viability (NCI-H520; first compound 0.1 µM): 0.246
- relative viability (NCI-H520; first compound 0.3162 µM): 0.243
- relative viability (NCI-H520; first compound 1 µM): 0.16
- relative viability (NCI-H596; first compound 0.01 µM): 0.702
- relative viability (NCI-H596; first compound 0.03162 µM): 0.711
- relative viability (NCI-H596; first compound 0.1 µM): 0.849
- relative viability (NCI-H596; first compound 0.3162 µM): 0.673
- relative viability (NCI-H596; first compound 1 µM): 0.686
- relative viability (NCI-H650; first compound 0.01 µM): 0.549
- relative viability (NCI-H650; first compound 0.03162 µM): 0.542
- relative viability (NCI-H650; first compound 0.1 µM): 0.537
- relative viability (NCI-H650; first compound 0.3162 µM): 0.509
- relative viability (NCI-H650; first compound 1 µM): 0.614
- relative viability (NCI-H661; first compound 0.01 µM): 0.731
- relative viability (NCI-H661; first compound 0.03162 µM): 0.717
- relative viability (NCI-H661; first compound 0.1 µM): 0.616
- relative viability (NCI-H661; first compound 0.3162 µM): 0.559
- relative viability (NCI-H661; first compound 1 µM): 0.319
- relative viability (NCI-H727; first compound 0.01 µM): 0.649
- relative viability (NCI-H727; first compound 0.03162 µM): 0.791
- relative viability (NCI-H727; first compound 0.1 µM): 0.425
- relative viability (NCI-H727; first compound 0.3162 µM): 0.52
- relative viability (NCI-H727; first compound 1 µM): 0.358
- relative viability (PC-14; first compound 0.01 µM): 0.847
- relative viability (PC-14; first compound 0.03162 µM): 0.816
- relative viability (PC-14; first compound 0.1 µM): 0.734
- relative viability (PC-14; first compound 0.3162 µM): 0.287
- relative viability (PC-14; first compound 1 µM): 0.0799
- relative viability (RERF-LC-KJ; first compound 0.01 µM): 0.587
- relative viability (RERF-LC-KJ; first compound 0.03162 µM): 0.668
- relative viability (RERF-LC-KJ; first compound 0.1 µM): 0.77
- relative viability (RERF-LC-KJ; first compound 0.3162 µM): 0.666
- relative viability (RERF-LC-KJ; first compound 1 µM): 0.499
- relative viability (SK-MES-1; first compound 0.01 µM): 0.672
- relative viability (SK-MES-1; first compound 0.03162 µM): 0.571
- relative viability (SK-MES-1; first compound 0.1 µM): 0.52
- relative viability (SK-MES-1; first compound 0.3162 µM): 0.173
- relative viability (SK-MES-1; first compound 1 µM): 0.17
- relative viability (SW 900; first compound 0.01 µM): 0.609
- relative viability (SW 900; first compound 0.03162 µM): 0.623
- relative viability (SW 900; first compound 0.1 µM): 0.539
- relative viability (SW 900; first compound 0.3162 µM): 0.501
- relative viability (SW 900; first compound 1 µM): 0.263
